35 compounds from publication PMC3265452 (PLoS Neglected Tropical Diseases, 2012) can be followed below.

SMILES strings stand for the structures. Where a name gives a salt, the structure may show the parent alone.

The target in the first experiment is AaDOP2 (Aedes aegypti, UniProt H6D5H2). The experiment is described as follows: AaDOP2 antagonist screen of the LOPAC1280 library (HEK-CRELuc-Aadop2 cells, luminescence). Format: cell-based.
Sequence of AaDOP2 (H6D5H2 1-476): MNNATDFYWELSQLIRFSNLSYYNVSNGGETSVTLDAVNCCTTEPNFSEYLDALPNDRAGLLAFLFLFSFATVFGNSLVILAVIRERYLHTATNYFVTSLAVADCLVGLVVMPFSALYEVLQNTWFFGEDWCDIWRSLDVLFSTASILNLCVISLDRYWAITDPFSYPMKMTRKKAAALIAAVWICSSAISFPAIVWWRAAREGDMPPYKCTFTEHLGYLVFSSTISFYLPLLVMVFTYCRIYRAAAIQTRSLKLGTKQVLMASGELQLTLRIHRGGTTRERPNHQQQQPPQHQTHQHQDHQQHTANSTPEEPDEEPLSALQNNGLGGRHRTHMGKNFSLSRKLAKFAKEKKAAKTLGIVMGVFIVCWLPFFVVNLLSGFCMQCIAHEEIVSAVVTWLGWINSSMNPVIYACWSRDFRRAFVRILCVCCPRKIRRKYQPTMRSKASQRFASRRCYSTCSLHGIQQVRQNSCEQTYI
Settings: not given
`C[N+](C)(C)CC=O` [Compound 171, Betaine aldehyde chloride]: the “Compound effect (percent receptor signaling in presence of test compound, relative lux units relative to the SCH23390 control)” value was 99. Consider `CC(/C=C/c1cccc(Oc2ccc(F)cc2)c1)N(O)C(N)=O` (centres unmarked) [Compound 173, BWB70C], for which the “Compound effect (percent receptor signaling in presence of test compound, relative lux units relative to the SCH23390 control)” value was found to be 118. As to `O=c1[nH]c(=O)n([C@H]2C[C@H](O)[C@@H](CO)O2)cc1Br` [Compound 174, 5-Bromo-2'-deoxyuridine], the “Compound effect (percent receptor signaling in presence of test compound, relative lux units relative to the SCH23390 control)” value turned out to be 84.

Consider `CC(C)COCC(CN(Cc1ccccc1)c1ccccc1)N1CCCC1` (centres unmarked) [Compound 175, Bepridil hydrochloride], for which the “Compound effect (percent receptor signaling in presence of test compound, relative lux units relative to the SCH23390 control)” value amounted to 78.

Regarding `CN(C)CC[C@@H](c1ccc(Br)cc1)c1ccccn1` [Compound 176, (+)-Brompheniramine maleate], the “Compound effect (percent receptor signaling in presence of test compound, relative lux units relative to the SCH23390 control)” value is 97. As to `Oc1ccc(-c2nc(-c3ccncc3)c(-c3ccc(F)cc3)[nH]2)cc1` [Compound 178, SB 202190], the “Compound effect (percent receptor signaling in presence of test compound, relative lux units relative to the SCH23390 control)” value is on record as 65. On the same count and under the same terms, the value for `CC(C)(C)c1ccc(S(=O)(=O)/C=C/C#N)cc1` [Compound 179, Bay 11-7085] was 76; that for `CC(C)NCC(O)COc1ccc(CCOCC2CC2)cc1` (centres unmarked) [Compound 180, Betaxolol hydrochloride] was 95.

Turning to `N=C(N)c1ccccc1` [Compound 181, Benzamidine hydrochloride], the “Compound effect (percent receptor signaling in presence of test compound, relative lux units relative to the SCH23390 control)” value is recorded as 87. Take `C[C@H]1C[C@H]2[C@@H]3CCC4=CC(=O)C=C[C@]4(C)[C@@]3(F)[C@@H](O)C[C@]2(C)[C@@]1(O)C(=O)CO` [Compound 182, Betamethasone]: the “Compound effect (percent receptor signaling in presence of test compound, relative lux units relative to the SCH23390 control)” value was 89.

Turning to `O=C1CC2(CCCC2)CC(=O)N1CCCCN1CCN(c2ncccn2)CC1` [Compound 183, Buspirone hydrochloride], the “Compound effect (percent receptor signaling in presence of test compound, relative lux units relative to the SCH23390 control)” value amounted to 83.

`NC(CO)C(=O)NNCc1ccc(O)c(O)c1O` (centres unmarked) [Compound 184, Benserazide hydrochloride]: the “Compound effect (percent receptor signaling in presence of test compound, relative lux units relative to the SCH23390 control)” value amounted to 94. Consider `C[C@H]1CCC/C=C/[C@@H]2C[C@H](O)C[C@H]2[C@H](O)/C=C/C(=O)O1` [Compound 185, Brefeldin A from Penicillium brefeldianum], for which the “Compound effect (percent receptor signaling in presence of test compound, relative lux units relative to the SCH23390 control)” value worked out at 124. The same measure, in the same setting: the value for `CCCC1O[C@@H]2C[C@H]3[C@@H]4CCC5=CC(=O)C=C[C@]5(C)[C@H]4[C@@H](O)C[C@]3(C)[C@]2(C(=O)CO)O1` (some centres unmarked) [Compound 186, Budesonide] was 128; that for `CCCCOc1cc(CC2CNC(=O)N2)ccc1OC` (centres unmarked) [Compound 189, Ro 20-1724] was 122. The same measure, in the same setting: the value for `CC(C)C[C@H](NC(=O)[C@@H](O)[C@H](N)Cc1ccccc1)C(=O)O` [Compound 190, Bestatin hydrochloride] was 145; that for `CC[N+](C)(C)Cc1ccccc1Br` [Compound 191, Bretylium tosylate] was 97; that for `CN1CCc2cc3c(cc2[C@H]1[C@@H]1OC(=O)c2c1ccc1c2OCO1)OCO3` [Compound 192, (+)-Bicuculline] was 94.

In the case of `COc1ccccc1N1CCN(CCCCNC(=O)c2ccc3ccccc3c2)CC1` [Compound 193, BP 897], the “Compound effect (percent receptor signaling in presence of test compound, relative lux units relative to the SCH23390 control)” value was 54. On to `O=c1[nH]c(=O)n([C@H]2C[C@H](O)[C@@H](CO)O2)cc1/C=C/Br` [Compound 194, (E)-5-(2-Bromovinyl)-2'-deoxyuridine], for which the “Compound effect (percent receptor signaling in presence of test compound, relative lux units relative to the SCH23390 control)” value worked out at 121. For the compound `OC(CN1CCN(c2cccc(Cl)c2)CC1)C(c1ccccc1)c1ccccc1` (centres unmarked) [Compound 195, BRL 15572], the “Compound effect (percent receptor signaling in presence of test compound, relative lux units relative to the SCH23390 control)” value was determined as 84.

As for `C=CCc1ccccc1OCC(O)CNC1(C)CCC(C(C)(C)NC(=O)CBr)CC1` (centres unmarked) [Compound 198, Bromoacetyl alprenolol menthane], the “Compound effect (percent receptor signaling in presence of test compound, relative lux units relative to the SCH23390 control)” value is 87. Still for that read-out and setting: the value for `COc1cccc(OC)c1OCCNCC1CSc2ccccc2O1` (centres unmarked) [Compound 199, Benoxathian hydrochloride] was 68; that for `CC(COc1ccccc1)N(CCCl)Cc1ccccc1` (centres unmarked) [Compound 200, Phenoxybenzamine hydrochloride] was 86.

As for `CC(NC(C)(C)C)C(=O)c1cccc(Cl)c1` (centres unmarked) [Compound 201, Bupropion hydrochloride], the “Compound effect (percent receptor signaling in presence of test compound, relative lux units relative to the SCH23390 control)” value was found to be 77.

As to `C[N+](C)(C)CCOC(=O)CBr.[Br-]` [Compound 204, Bromoacetylcholine bromide], the “Compound effect (percent receptor signaling in presence of test compound, relative lux units relative to the SCH23390 control)” value amounted to 91. Consider `Cl.c1ccc2sc(C3(N4CCCCC4)CCCCC3)cc2c1` [Compound 207, BTCP hydrochloride], for which the “Compound effect (percent receptor signaling in presence of test compound, relative lux units relative to the SCH23390 control)” value was 100. On to `CN1CCC(c2c[nH]c3ccc(O)cc23)CC1.O=C(O)/C=C\C(=O)O` [Compound 213, BRL 54443 maleate], for which the “Compound effect (percent receptor signaling in presence of test compound, relative lux units relative to the SCH23390 control)” value is 80.

The same experiment, now with this note: 10 µM compound, 300 nM dopamine, 2 hr; hit = compound effect <20.
Take `Cl.NCC(O)c1cc(O)c(O)cc1F` (centres unmarked) [Compound 197, 6-Fluoronorepinephrine hydrochloride]: the “Compound effect (percent receptor signaling in presence of test compound, relative lux units relative to the SCH23390 control)” value was 90%. `COc1ccccc1N1CCN(CCN2C(=O)CC3(CCCC3)CC2=O)CC1.Cl.Cl` [Compound 205, BMY 7378 dihydrochloride]: the “Compound effect (percent receptor signaling in presence of test compound, relative lux units relative to the SCH23390 control)” value was found to be 102%. With `Br.C=CCN1CCc2c(cc(O)c(O)c2Br)[C@@H](c2ccccc2)C1` [Compound 206, R(+)-6-Bromo-APB hydrobromide], the “Compound effect (percent receptor signaling in presence of test compound, relative lux units relative to the SCH23390 control)” value came to 182%. For the compound `CCNC(=O)[C@H]1O[C@@H](n2cnc3c(NCc4ccccc4)ncnc32)[C@H](O)[C@@H]1O` [Compound 208, N6-Benzyl-5'-N-ethylcarboxamidoadenosine], the “Compound effect (percent receptor signaling in presence of test compound, relative lux units relative to the SCH23390 control)” value stood at 108%.

As to `Cl.c1ccc2nc(C3=NCCN3)ccc2c1` [Compound 209, BU224 hydrochloride], the “Compound effect (percent receptor signaling in presence of test compound, relative lux units relative to the SCH23390 control)” value was determined as 92%.

For `CCN1CCc2nc(N)oc2CC1.Cl.Cl` [Compound 210, B-HT 933 dihydrochloride], the “Compound effect (percent receptor signaling in presence of test compound, relative lux units relative to the SCH23390 control)” value turned out to be 79%. Regarding `C[C@H](Cc1ccc(OCC(=O)[O-])cc1)NC[C@H](O)c1cccc(Cl)c1.[Na+]` [Compound 212, BRL 37344 sodium], the “Compound effect (percent receptor signaling in presence of test compound, relative lux units relative to the SCH23390 control)” value was determined as 87%.
